# Literature values in patent US20230165895A1, “COMPOSITIONS AND METHODS FOR EYE HEAL TH COMPRISING AREDS AND VITAMIN B COMPLEX” (BAUSCH + LOMB IRELAND LIMITED, priority 2020, published 2023).
# Details: no test, species or source described; stated next to the RDA
structure (smiles),measurement,value
"Cc1c(C)c2c(c(C)c1O)CC[C@@](C)(CCC[C@H](C)CCC[C@H](C)CCCC(C)C)O2 [vitamin E, alpha tocopherol]",levels at which no adverse effects have been observed,≤ 800.0 mg
